Measured values: publication PMC5505654 (European journal of medicinal chemistry, 2017)

What was measured:
[1] = biological target: AM2-S31N mutant of the A/M2 proteins (Influenza A virus, UniProt P0DOF5, S31N); assay type: biochemical; settings: pH 5.5
A/WSN/33 (H1N1) virus = assay type: cell-based, influenza A virus

CC(C)[Si](c1ccc(CNC23CC4CC(CC(O)(C4)C2)C3)cc1)(C(C)C)C(C)C [Compound 5f]
% AM2-S31N inhibition [1]: inactive | A/WSN/33 EC50 (A/WSN/33 (H1N1) virus): inactive
